Laboratory results reported in patent US20060128662A1, “Novel compounds for treatment of obesity” (Novo Nordisk A/S, priority 2003, published 2006).

system: FSK-4 cells; test: Assay (I): Glucose utilisation in a human epithelia cell line (FSK4 cells), D-(6-3H(N))-glucose; format: cell-based; settings: 24 hours incubation, Hill equation, read-out: GlucosFSK4 EC50
Description: Assay (I): Glucose Utilisation in a Human Epithelia Cell Line (FSK4 cells)
The ^3H-proton will first be released in the TCA cyclus and transported to the respiratory chain where it will be incorporated into water. The water is thereafter separated from the D-(6-^3H(N))-glucose by evaporation.
FSK-4 cells obtained from ATCC (Maryland, USA), are cultured in growth medium (McCoy's medium with the following addition 100 units/ml penicillin and streptomycin and 10% FCS (fetal calf serum)) at 37° C. and 5% CO2.
The cells are then incubated for another 24 hours at 37° C. and 5% CO2.
The half maximal concentration (EC50) and maximal efficacy (Emax) are calculated using the Hill equation in GraphPad Prism 3.0 (GraphPad software, Inc.). […] From the percentage increase in glucose utilisation the linear slope is calculated using the Michaelis-Menten equation.

EC50	Structure (SMILES)
9000 nM	CC(C)(C)c1cc(/C=C(\C#N)S(=O)(=O)c2ccccn2)cc(C(C)(C)C)c1O [Example 3, (E)-3-(3,5-Di-tert!-butyl-4-hydroxy-phenyl)-2-(pyridine-2-sulfonyl)-acrylonitrile]
> 10000 nM	N#C/C(=C\c1ccc(O)c([N+](=O)[O-])c1)S(=O)(=O)c1ccc(Cl)cc1 [Example 4, (E)-2-(4-Chloro-benzenesulfonyl)-3-(4-hydroxy-3-nitro-phenyl)-acrylonitrile]
8400 nM	Cn1ccnc1S(=O)(=O)/C(C#N)=C/c1cc(C(C)(C)C)c(O)c(C(C)(C)C)c1 [Example 6, (E)-3-(3,5-Di-tert-butyl-4-hydroxy-phenyl)-2-(1-methyl-1H-imidazole-2-sulfonyl)-acrylonitrile]
10000 nM	C/C(=C(/C#N)S(=O)(=O)c1ccc(Cl)cc1)c1cc(C(C)(C)C)c(O)c(C(C)(C)C)c1 [Example 7, (E/Z)-2-(4-Chloro-benzenesulfonyl)-3-(3,5-di-tert-butyl-4-hydroxy-phenyl)-but-2-enenitrile]
1400 nM	CC(C)(C)c1cc(/C=C(\C#N)S(=O)(=O)c2ccc([N+](=O)[O-])cc2)cc(C(C)(C)C)c1O [Example 9, (E)-3-(3,5-Di-tert-butyl-4-hydroxy-phenyl)-2-(4-nitro-benzenesulfonyl)-acrylonitrile]
2200 nM	CC(C)(C)c1cc(/C=C(\C#N)S(=O)(=O)c2ccc(OC(F)(F)F)cc2)cc(C(C)(C)C)c1O [Example 11, (E)-3-(3,5-Di-tert-butyl-4-hydroxy-phenyl)-2-(4-trifluoromethoxy-benzenesulfonyl)-acrylonitrile]
6000 nM	CC(C)(C)c1cc(/C=C(\C#N)S(=O)(=O)c2ccc(Cl)cc2)cc([N+](=O)[O-])c1O [Example 12, (E)-3-(3-tert-Butyl-4-hydroxy-5-nitro-phenyl)-2-(4-chloro-benzenesulfonyl)-acrylonitrile]
4000 nM	COCCN(CCOC)C(=O)c1ccc(S(=O)(=O)/C(C#N)=C/c2cc(C(C)(C)C)c(O)c(C(C)(C)C)c2)cc1 [Example 13]
2300 nM	CN(C)C(=O)c1ccc(S(=O)(=O)/C(C#N)=C/c2cc(C(C)(C)C)c(O)c(C(C)(C)C)c2)cc1 [Example 14]
10000 nM	CC(O)CN(CC(C)O)C(=O)c1ccc(S(=O)(=O)/C(C#N)=C/c2cc(C(C)(C)C)c(O)c(C(C)(C)C)c2)cc1 (stereo not shown) [Example 15]
3200 nM	CN1CCN(C(=O)c2ccc(S(=O)(=O)/C(C#N)=C/c3cc(C(C)(C)C)c(O)c(C(C)(C)C)c3)cc2)CC1 [Example 16, (E)-3-(3,5-Di-tert-butyl-4-hydroxy-phenyl)-2-[4-(4-methyl-piperazine-1-carbonyl)-benzenesulfonyl]-acrylonitrile]
7400 nM	CC(C)(C)c1cc(/C=C(\C#N)S(=O)(=O)c2ccc(C(=O)NCCO)cc2)cc(C(C)(C)C)c1O [Example 17]
1700 nM	CC1CN(C(=O)c2ccc(S(=O)(=O)/C(C#N)=C/c3cc(C(C)(C)C)c(O)c(C(C)(C)C)c3)cc2)CC(C)O1 (stereo not shown) [Example 18, (E)-3-(3,5-Di-tert-butyl-4-hydroxy-phenyl)-2-[4-(2,6-dimethyl-morpholine-4-carbonyl)-benzenesulfonyl]-acrylonitrile]
5100 nM	CC(C)(C)c1cc(/C=C(\C#N)S(=O)(=O)c2ccc(C(=O)N3CCOCC3)cc2)cc(C(C)(C)C)c1O [Example 19, (E)-3-(3,5-Di-tert-butyl-4-hydroxy-phenyl)-2-[4-(morpholine-4-carbonyl)-benzenesulfonyl]-acrylonitrile]
2800 nM	CC(C)(C)c1cc(/C=C(\C#N)S(=O)(=O)c2ccc(N)cc2)cc(C(C)(C)C)c1O [Example 20, (E)-2-(4-Amino-benzenesulfonyl)-3-(3,5-di-tert-butyl-4-hydroxy-phenyl)-acrylonitrile]
400 nM	CC(C)(C)c1cc(/C=C(\C#N)S(=O)(=O)/C(C#N)=C/c2cc(C(C)(C)C)c(O)c(C(C)(C)C)c2)cc(C(C)(C)C)c1O [Example 22]
1200 nM	CC(C)(C)c1cc(/C=C(\C#N)S(=O)(=O)c2cccs2)cc(C(C)(C)C)c1O [Example 23, (E)-3-(3,5-Di-tert-butyl-4-hydroxy-phenyl)-2-(thiophene-2-sulfonyl)-acrylonitrile]
700 nM	CC(C)(C)c1cc(/C=C(\C#N)S(=O)(=O)Cc2ccc(Cl)cc2)cc(C(C)(C)C)c1O [Example 24, (E)-2-(4-Chloro-phenylmethanesulfonyl)-3-(3,5-di-tert-butyl-4-hydroxy-phenyl)-acrylonitrile]
3700 nM	CC(C)(C)c1cc(/C=C(\C#N)S(=O)(=O)c2ccc(C(=O)N(CCO)CCO)cc2)cc(C(C)(C)C)c1O [Example 26]

EC50	Structure (SMILES)
3500 nM	CC1COCC(C)N1C(=O)c1ccc(S(=O)(=O)/C(C#N)=C/c2cc(C(C)(C)C)c(O)c(C(C)(C)C)c2)cc1 (stereo not shown) [Example 27, 3-(3,5-Di-tert-butyl-4-hydroxy-phenyl)-2-[4-(3,5-dimethyl-morpholine-4-carbonyl)-benzenesulfonyl]-acrylonitrile]
2900 nM	CC(C)(C)c1ccc(S(=O)(=O)/C(C#N)=C/c2cc(C(C)(C)C)c(O)c(C(C)(C)C)c2)cc1 [Example 29, 2-(4-tert-Butyl-benzenesulfonyl)-3-(3,5-di-tert-butyl-4-hydroxy-phenyl)-acrylonitrile]
1000 nM	CC(C)(C)c1cc(/C=C(\C#N)S(=O)(=O)c2cccc3ccccc23)cc(C(C)(C)C)c1O [Example 30, 3-(3,5-Di-tert-butyl-4-hydroxy-phenyl)-2-(naphthalene-1-sulfonyl)-acrylonitrile]
2000 nM	CC(C)(C)c1cc(/C=C(\C#N)S(=O)(=O)Cc2ccco2)cc(C(C)(C)C)c1O [Example 31, 3-(3,5-Di-tert-butyl-4-hydroxy-phenyl)-2-(furan-2-ylmethanesulfonyl)-acrylonitrile]
1100 nM	Cc1ccc(S(=O)(=O)/C(C#N)=C/c2cc(C(C)(C)C)c(O)c(C(C)(C)C)c2)cc1 [Example 33, 3-(3,5-Di-tert-butyl-4-hydroxy-phenyl)-2-(toluene-4-sulfonyl)-acrylonitrile]
2300 nM	CC(C)c1ccc(S(=O)(=O)/C(C#N)=C/c2cc(C(C)(C)C)c(O)c(C(C)(C)C)c2)cc1 [Example 34, 3-(3,5-Di-tert-butyl-4-hydroxy-phenyl)-2-(4-isopropyl-benzenesulfonyl)-acrylonitrile]
3300 nM	CC(C)(C)c1cc(C=C(C#N)S(=O)(=O)c2cc(C(C)(C)C)c(O)c(C(C)(C)C)c2)cc(C(C)(C)C)c1O [Example 35, 2-(3,5-Di-tert-butyl-4-hydroxy-benzenesulfonyl)-3-(3,5-di-tert-butyl-4-hydroxy-phenyl)-acrylonitrile]
700 nM	CC(C)(C)c1cc(/C=C(\C#N)S(=O)(=O)c2ccc(S(C)(=O)=O)cc2)cc(C(C)(C)C)c1O [Example 38, 3-(3,5-Di-tert-butyl-4-hydroxy-phenyl)-2-(4-methanesulfonyl-benzenesulfonyl)-acrylonitrile]
500 nM	CC(C)(C)c1cc(/C=C(\C#N)S(=O)(=O)c2cccc(OC(F)(F)F)c2)cc(C(C)(C)C)c1O [Example 39, 3-(3,5-Di-tert-butyl-4-hydroxy-phenyl)-2-(3-trifluoromethoxy-benzenesulfonyl)-acrylonitrile]
600 nM	CC(C)(C)c1cc(/C=C(\C#N)S(=O)(=O)c2ccccc2OC(F)(F)F)cc(C(C)(C)C)c1O [Example 40, 3-(3,5-Di-tert-butyl-4-hydroxy-phenyl)-2-(2-trifluoromethoxy-benzenesulfonyl)-acrylonitrile]
900 nM	CC(C)(C)c1cc(/C=C(\C#N)S(=O)(=O)c2ccc(Cl)cn2)cc(C(C)(C)C)c1O [Example 41, 2-(5-Chloro-pyridine-2-sulfonyl)-3-(3,5-di-tert-butyl-4-hydroxy-phenyl)-acrylonitrile]
9000 nM	CC(C)(C)c1cc(/C=C(\C#N)S(=O)(=O)c2ccccc2C(=O)O)cc(C(C)(C)C)c1O [Example 42]
3000 nM	CC(C)(C)c1cc(/C=C(\C#N)S(=O)(=O)c2ccccc2C(=O)N2CCOCC2)cc(C(C)(C)C)c1O [Example 44, 3-(3,5-Di-tert-butyl-4-hydroxy-phenyl)-2-[2-(morpholine-4-carbonyl)-benzenesulfonyl]-acrylonitrile]
3000 nM	CC(C)(C)c1cc(/C=C(\C#N)S(=O)(=O)c2cccc(C(=O)N3CCOCC3)c2)cc(C(C)(C)C)c1O [Example 45, 3-(3,5-Di-tert-butyl-4-hydroxy-phenyl)-2-[3-(morpholine-4-carbonyl)-benzenesulfonyl]-acrylonitrile]
1000 nM	COc1ccc(S(=O)(=O)/C(C#N)=C/c2cc(C(C)(C)C)c(O)c(C(C)(C)C)c2)cc1 [Example 46, 3-(3,5-Di-tert-butyl-4-hydroxy-phenyl)-2-(4-methoxy-benzenesulfonyl)-acrylonitrile]
800 nM	COc1cccc(S(=O)(=O)/C(C#N)=C/c2cc(C(C)(C)C)c(O)c(C(C)(C)C)c2)c1 [Example 47, 3-(3,5-Di-tert-butyl-4-hydroxy-phenyl)-2-(3-methoxy-benzenesulfonyl)-acrylonitrile]
1500 nM	COc1ccc(S(=O)(=O)/C(C#N)=C/c2cc(C(C)(C)C)c(O)c(C(C)(C)C)c2)cc1OC [Example 48, 3-(3,5-Di-tert-butyl-4-hydroxy-phenyl)-2-(3,4-dimethoxy-benzenesulfonyl)-acrylonitrile]
2200 nM	CC(C)(C)c1cc(/C=C(\C#N)S(=O)(=O)c2ccc(C3CC=CO3)cc2)cc(C(C)(C)C)c1O (stereo not shown) [Example 49, 3-(3,5-Di-tert-butyl-4-hydroxy-phenyl)-2-[4-(2,3-dihydro-furan-2-yl)-benzenesulfonyl]-acrylonitrile]
